Assay results: ChEMBL document CHEMBL2069188, “Structural requirements for the antitubercular quaternized triflupromazine pharmacophore” (Bioorg Med Chem Lett, 2012)
In brackets after ≈: the same amount, converted by molar mass.

Tested on: Mycobacterium tuberculosis
Assay: Antitubercular activity against highly drug-resistant, non replicating, persistent Mycobacterium tuberculosis harboring Vibrio harveyii luciferase gene incubated under anaerobic condition measured after 28 hrs of aerobic recovery by LORA method
Type: functional

`C[N+](C)(CCCN1c2ccccc2Sc2ccc(C(F)(F)F)cc21)Cc1ccc(I)cc1.[Br-]` and `C[N+](C)(CCCN1c2ccccc2Sc2ccc(C(F)(F)F)cc21)Cc1ccc(Br)cc1.[Br-]` are within 1.5-fold of each other in MIC90: 7.2 µM for the first, 7.1 µM for the second.

First: CO[C@H]1/C=C/O[C@@]2(C)Oc3c(C)c(O)c4c(O)c(c(/C=N/N5CCN(C)CC5)c(O)c4c3C2=O)NC(=O)/C(C)=C\C=C\[C@H](C)[C@H](O)[C@@H](C)[C@@H](O)[C@@H](C)[C@H](OC(C)=O)[C@@H]1C [RIFAMPIN]
Second: C[N+](C)(CCCN1c2ccccc2Sc2ccc(C(F)(F)F)cc21)Cc1ccc(F)cc1.[Cl-]
The MIC90 of the first is 23-fold lower: 0.61 µM (≈ 0.502 µg/mL) for the first, 14.3 µM for the second.

First: C[N+](C)(CCCN1c2ccccc2Sc2ccc(C(F)(F)F)cc21)Cc1ccc(Cl)cc1.[Cl-]
Second: FC(F)(F)c1ccc2c(c1)N(Cc1cn(Cc3ccc(Cl)cc3)nn1)c1ccccc1S2
The MIC90 of the first is lower: 7.8 µM for the first, greater than 100 µM for the second.
